The values below come from patent US4100278A, “Novel benzazepines” (Roussel Uclaf, priority 1976, dated 1978).

The test system of one series is L-dopa effects. The series is described as follows: Potentialization of L-dopa effects in mice pretreated with iproniazide. Format: in vivo. The settings on record: Mus musculus, ip; male mice, test product i.p. one hour before L-dopa 100 mg/kg i.p.; iproniazide 75 mg/kg i.p. 18 hours before; read-out: ED50 (dose at which 50% of the L-dopa effects were potentialized). How it is done: The administration of L-dopa to mice pretreated with iproniazide 18 hours earlier produces a certain number of symptoms: muscular hypertonicity, hyperactivity, agitation, crying, aggressiveness, salivation and exophthalmia. The intensity of these effects is potentialized by administration of an antidepressive agent one hour before the L-dopa administration.
Male mice received intraperitoneally 75 mg/kg of iproniazide 18 hours before the start of the test and the test products in aqueous solution were administered intraperitoneally in increasing doses. The L-dopa was intraperitoneally administered at a dose of 100 mg/kg one hour later and the symptoms observed 15 and 30 minutes after the L-dopa administration were evaluated on a scale of 0 to 3 for each mouse and the values were totaled for each dose.

In series [1] the test system is effects of nialamide (inhibitor of monoamine oxidase) - hyperactive motility. Kind of series: Potentialization of effects of IMAO (nialamide), actimetric counting in mice. Format: in vivo. More on the design: key to the marks not given beside the values. Conditions: 30 minutes after nialamide 100 mg/kg i.p., counts totaled every 30 minutes for 6 hours.
Series [2] relates to effects of 5-hydroxytryptophane (5 HTP). The series is described as follows: Potentialization of effects of 5 HTP in mice (trembling). Format: in vivo. Conditions: Mus musculus, test product i.p. one hour before 200 mg/kg 5 HTP i.p., observed every 15 minutes for an hour, read-out: MAD (minimum active dose). An excerpt:
The administration of 5-hydroxytryptophane (5 HTP) to mice pretreated with an antidepressive agent induces in the animals a particular behavoir, namely the appearance of trembling.

Series [3] in a line: Acute toxicity (LD50) in mice. The settings on record: mouse, in vivo, ip, intraperitoneal, mortality at 48 hours. How it is done: The LD50, dose which killed 50% of mice was determined by intraperitoneal administration of the test compounds and the mortality rate was determined of 48 hours.
Series [4] has as its system uptake of serotonine (C^14 - 5 HT), brain synaptosoma. The series is described as follows: Inhibition of uptake of serotonine in vivo (Test No. 2). The settings on record: Rattus norvegicus, ip; female rats 19 to 21 days old, 10 mg/kg i.p., brain removed after 30 minutes; read-out: % inhibition of uptake of C^14 - 5 HT with respect to the controls (Test No. 2). The procedure:
The test products were administered intraperitoneally to groups of female rats 19 to 21 days old at doses from 5 to 20 mg/kg. After 30 minutes, the brain was removed and the synaptosoma was prepared and was placed in an incubator in the presence of C^14 - 5 HT as indicated previously. […] The activity is expressed in % inhibition with respect to the controls at a dose of 10 mg/kg and the results are reported in Table V.

Series [5] relates to uptake of serotonine (5 HT), purified synaptosoma from whole brain. The series is described as follows: Inhibition of uptake of serotonine in vitro (Test No. 1). Format: biochemical, female rats. The settings on record: rat brain synaptosoma, 37° C, 5 minutes, C^14 - 5 HT 10^-7 M; read-out: 50% inhibiting concentration (IC 50) of uptake of C^14 - 5 HT (Test No. 1). The procedure: The inhibition of uptake of serotonine (5 HT) was measured with purified synaptosoma prepared by starting from the whole brain of female rats 19-21 days old by the technique of Kannengiesser et al [Biochemical Pharmacology, Vol. 22 (1973), p. 73]. The test products at different concentrations were incubated with the preparation at 37° C for 5 minutes in the presence of C^14 - 5 HT at a concentration of 10^-7 M. The 50% inhibiting concentration (IC 50) of the products was graphically determined as the dose that inhibited by 50% the uptake of C^14 - 5 HT in the synaptosma.

Molecules are shown by their SMILES. Where a name gives a salt, the structure may show the parent alone.

`NCC1CCc2ccccc2NC1.O=C(O)/C=C/C(=O)O` (centres unmarked) [Example 1, 2,3,4,5-tetrahydro-[1H]-1-benzazepine-3-methanamine fumarate]: the ED50 (in general, the midpoint of the dose-response relation) in the series with L-dopa effects came to 10 mg/kg. The “Potentialization of nialamide for the dose” value (“Potentialization of nialamide” for short) in series [1] (1 mg/kg i.p.) was “++”. For the same compound, the minimal effective dose in series [2] was 50 mg/kg. Further, the LD50 (usually the dose at which mortality reaches 50%) at 48 h in series [3] came to 300 mg/kg.

`CNCC1CCc2ccccc2N(C)C1` (centres unmarked) [Example 3, Di-[N, 1-dimethyl-2,3,4,5-tetrahydro-[1H]-1-benzazepine-3-methanamine]-fumarate]: in the series on L-dopa effects, the ED50 amounted to 20 mg/kg. Further, the “Potentialization of nialamide” value in series [1] (5 mg/kg i.p.) is “++”. Moreover, the minimal effective dose in series [2] stood at 50 mg/kg. Besides, the LD50 at 48 h in series [3] was determined as 250 mg/kg. Also, in series [4], the inhibition (in general, the relative decrease from the control value, in per cent) at 10 mg/kg is 40%. Also, the IC50 in series [5] was determined as 1300 nM.

On to `CNCC1CCc2ccccc2NC1.Cl.Cl` (centres unmarked) [Example 2, N-methyl-2,3,4,5-tetrahydro-[1H]-1-benzazepine-3-methanamine dihydrochloride], for which the “Potentialization of nialamide” value in series [1] (5 mg/kg i.p.) is given as “+++”. Moreover, in series [2], the minimal effective dose is 10 mg/kg. The same compound had an LD50 at 48 h in series [3] of 250 mg/kg. Moreover, in series [4], the inhibition at 10 mg/kg came out at 58%. In addition, the IC50 in series [5] was 1300 nM.

Turning to `NC1CCc2ccccc2NC1` (centres unmarked) [Example 4, di-[2,3,4,5-tetrahydro-[1H]-1-benzazepine-3-amine]-fumarate], the ED50 in the series with L-dopa effects was 50 mg/kg. The “Potentialization of nialamide” value in series [1] (20 mg/kg i.p.) is recorded as “++”. The minimal effective dose in series [2] stood at 50 mg/kg. Also, the LD50 at 48 h in series [3] turned out to be 300 mg/kg.

On to `CNC1CCc2ccccc2NC1` (centres unmarked) [Example 6, di-[N-methyl-2,3,4,5-tetrahydro-[1H]-1-benzazepine-3-amine] fumarate], for which the minimal effective dose in series [2] amounted to 20 mg/kg. The compound further returned an LD50 at 48 h in series [3] of 250 mg/kg.

Turning to `CNC1CCc2ccccc2N(C)C1` (centres unmarked) [Example 5, di-[N,1-dimethyl-2,3,4,5-tetrahydro-[1H]-1-benzazepine-3-amine]-fumarate], the minimal effective dose in series [2] turned out to be 50 mg/kg. In series [3], this compound had an LD50 at 48 h of 150 mg/kg.
